Results reported in US20260109707A1, “HETEROBIFUNCTIONAL COMPOUNDS AND METHODS OF TREATING DISEASE” (Halda Therapeutics OpCo. Inc., priority 2022, published 2026).

How the values were obtained:
[1] = test system: T-Rex 293 cell line SC3 cells lacking increased expression of androgen receptor protein; experiment: Cellular growth inhibition assay, T-Rex 293 SC3 cells without doxycycline (CellTiter-Glo, 72 hours); format: cell-based; conditions: 72 h, T-Rex 293 cell line SC3 cells not exposed to doxycycline (lacking increased androgen receptor expression)
Method in brief: (§1)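 Doxycycline (10 ng/mL) was either included or omitted to toggle wild-type androgen receptor expression in SC3 cells, a T-Rex 293 clone, grown in stripped-serum, phenol red-free medium. After 72 hours with compound, viable cells were quantified by CellTiter-Glo 2.0.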

[2] = test system: T-Rex 293 cell line SC3 cells having increased expression of androgen receptor protein due to exposure to doxycycline; experiment: Cellular growth inhibition assay, T-Rex 293 SC3 cells with doxycycline (CellTiter-Glo, 72 hours); format: cell-based; conditions: 72 h, T-Rex 293 SC3 cells with increased androgen receptor expression due to doxycycline (10 ng/mL)
Method in brief: as §1

[3] = test system: T-Rex 293 cell line SC cells lacking increased expression of progesterone receptor isoform B protein; experiment: Cellular growth inhibition assay, T-Rex 293 SC cells without doxycycline (CellTiter-Glo, 72 hours); format: cell-based; conditions: T-Rex 293 SC cells not exposed to doxycycline
Experimental: (§2) The following types of cells were prepared for this experiment: (i) a T-Rex 293 cell line having increased expression of progesterone receptor isoform B protein due to exposure to doxycycline and (ii) a T-Rex 293 cell line lacking increased expression of progesterone receptor isoform B protein. Ability of the test compounds to inhibit proliferation of the foregoing cell types was evaluated according to the procedures set forth below.
(§3) The doxycycline-inducible progesterone receptor isoform B protein expressing cell line was established using the following protocol: T-Rex 293 cells were purchased from Invitrogen (Cat #R71007) and transfected using Lipofectamine 2000 with the wild-type progesterone receptor B protein sequence cloned into the pcDNA4/TO vector. Transfected cells were selected using 400 μg/mL Zeocin (Invitrogen Cat #R25001). Following selection, single clones were raised and maintained in Dulbecco's Modified Eagle Medium (DMEM) supplemented with 10% w/w Tetracycline-free fetal bovine serum (FBS) and 250 μg/mL Zeocin. Clones were analyzed for expression of progesterone receptor isoform B protein in the presence and absence of 10 ng/mL doxycycline (Sigma Cat #D9891), and a single doxycycline-inducible clone (hereinafter “SC”) was selected for use in downstream assays.
(§4) The SC cells were seeded on poly-D-lysine coated, black clear-bottom 384-well plates at 2500/well, in 25 μL Phenol Red Free Dulbecco's Modified Eagle Medium (DMEM) supplemented with 10% w/w charcoal-dextran treated fetal bovine serum (FBS) and 1% w/w pen-strep, with or without 10 ng/mL doxycycline. Pen-Strep is a commercially available mixture of penicillin G and streptomycin, which is used in mammalian cell culture media to prevent bacterial contamination. Phenol Red Free Dulbecco's Modified Eagle Medium (DMEM) supplemented with 10% w/w charcoal-dextran treated fetal bovine serum (FBS) and 1% w/w pen-strep, with or without 10 ng/mL doxycycline is herein referred to as Treatment Medium. Following seeding of cells in the plates, the plates were spun at 300×g for 30 seconds, then equilibrated to room temperature for 30 minutes, and then deposited in a humidified tissue culture incubator maintained at 37° C. with 5% CO2.
(§5) At 24 hours after seeding of the cells, dilutions of test compound were prepared in DMSO and dissolved in Treatment Medium, to achieve a final DMSO concentration of 0.5% w/w, thereby providing the Test Compound Solution. A 25 μL aliquot of the Test Compound Solution was added to cells in the well plates. An equal volume of a solution containing DMSO and Treatment Medium was used as a negative control. Following treatment of cells with Test Compound Solution or said equal volume of a solution containing DMSO and Treatment Medium, the plates were spun at 300×g for 30 seconds, and then left in an incubator for 72 hours.
(§6) At the end of the treatment duration, cell viability was quantified with CellTiter-Glo 2.0 reagent (Promega Cat #G9243). For this purpose, plates were equilibrated to room temperature for 30 minutes, and then 25 μL of CellTiter-Glo 2.0 reagent was added to cells in the plate wells. Plates were then agitated on a shaker for two minutes at 500 rpm and subsequently incubated at room temperature for 10 minutes. Following incubation, the plates were spun at 3000×g for 30 seconds, then sealed with an optical adhesive cover, and luminescence readings were measured with an EnVision Plate Reader (Perkin Elmer).
(§7) Data was normalized using zero luminescence for baseline. A four-parameter non-linear regression curve fit was applied to dose-response data in GraphPad Prism data analysis software to determine the half-maximal growth inhibitory concentration (GI50) for each test compound.

VCaP cells = experiment: Cellular growth inhibition assay for VCaP cells (CellTiter-Glo, 72 hours); format: cell-based, human; conditions: Homo sapiens, VCaP, 72 h
Method in brief: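 Luminescent viability signal after 72 h of compound exposure gave GI50 values by four-parameter nonlinear regression. Compounds were added in 0.5% DMSO to cells plated 24 h earlier at 5000/well in DMEM containing 10% FBS.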

T47D cells = experiment: Cellular growth inhibition assay for T47D cells (CellTiter-Glo, 72 hours); format: cell-based, human; conditions: Homo sapiens, T47D, 72 h, 72 hours treatment
Method in brief: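 Cells are plated at 3000/well and allowed 24 h before treatment. Test compound in medium containing 0.5% DMSO is then added, with DMSO-only wells as negative control, and plates are incubated 72 h at 37 °C. ATP luminescence (CellTiter-Glo 2.0) is then fitted to four parameters to derive GI50.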

[4] = Cellular growth inhibition assay, T-Rex 293 SC cells with doxycycline (CellTiter-Glo, 72 hours); format: cell-based; conditions: T-Rex 293 SC cells with doxycycline (increased progesterone receptor isoform B)
Experimental: as §2, §3, §4, §5, §6, §7

SMILES | GI50 [1] [nM] | GI50 [2] [nM] | GI50 [3] [nM] | GI50 (VCaP cells) [nM] | GI50 (T47D cells) [nM] | GI50 [4] [nM]
CCNC(=O)C[C@@H]1N=C(c2ccc(OC3CCN(c4ccc(C(=O)N[C@H]5CC[C@H](Oc6ccc(C#N)c(Cl)c6)CC5)nn4)CC3)cc2)c2c(sc(C)c2C)-n2c(C)nnc21 [I-26] | 500 to 1500 | < 500 | < 500 | < 500 | < 500 | < 500
CCNC(=O)C[C@@H]1N=C(c2ccc(N3CCN(CC4CCN(c5ccc(C(=O)N[C@H]6CC[C@H](Oc7ccc(C#N)c(Cl)c7)CC6)nn5)CC4)CC3)cc2)c2c(sc(C)c2C)-n2c(C)nnc21 [I-28] | 500 to 1500 | < 500 | < 500 | < 500 | < 500 | < 500
CCNC(=O)C[C@@H]1N=C(c2ccc(OCCN3CCN(c4ccc(C(=O)N[C@H]5CC[C@H](Oc6ccc(C#N)c(Cl)c6)CC5)nn4)CC3)cc2)c2c(sc(C)c2C)-n2c(C)nnc21 [I-25] | 500 to 1500 | < 500 | 500 to 1500 | < 500 | < 500 | < 500
Cc1sc2c(c1C)C(c1ccc(CCN3CCCN(c4ccc(C(=O)N[C@H]5CC[C@H](Oc6ccc(C#N)c(Cl)c6)CC5)nn4)CC3)cc1)=N[C@@H](Cc1ncco1)c1nnc(C)n1-2 [I-128] | < 500 | < 500 | < 500 | < 500 | < 500 | < 500
Cc1sc2c(c1C)C(c1ccc(C3C[C@@H]3CC3CCCN(c4ccc(C(=O)N[C@H]5CC[C@H](Oc6ccc(C#N)c(Cl)c6)CC5)nn4)C3)cc1)=N[C@@H](Cc1ncco1)c1nnc(C)n1-2 (stereo partly drawn) [I-203] | 500 to 1500 | < 500 | 500 to 1500 | 1500 to 3000 | > 3000 | 500 to 1500
Cc1sc2c(c1C)C(c1ccc(CCCN3[C@H](C)CN(c4ccc(C(=O)N[C@H]5CC[C@H](Oc6ccc(C#N)c(Cl)c6)CC5)nn4)C[C@@H]3C)cc1)=N[C@@H](Cc1ncco1)c1nnc(C)n1-2 [I-129] | < 500 | < 500 | < 500 | < 500 | < 500 | < 500
CCNC(=O)C[C@@H]1N=C(c2ccc(C3CCC(OC4CCN(c5ccc(C(=O)N[C@H]6CC[C@H](Oc7ccc(C#N)c(Cl)c7)CC6)nn5)CC4)C3)cc2)c2c(sc(C)c2C)-n2c(C)nnc21 (stereo partly drawn) [I-67] | < 500 | < 500 | < 500 | < 500 | < 500 | < 500
